Assay results as given in patent US8415393B2, “Anti-bacterial drug targeting of genome maintenance interfaces” (Wisconsin Alumni Research Foundation, priority 2007, dated 2013).
Changes are numbered by the printed parent chain. Names may count otherwise. Converted amounts (≈) assume the structure as drawn. Where two headings read alike, the source gives them in different places. Where no end group is shown, it is not given here. fluorescein = fluorescein moiety attached to the N-terminus of the peptide (N-terminal fluorescein label)

T1: Exonuclease I/SSB-Ct complex (Escherichia coli, UniProt P04995)
T1 sequence (P04995 whole entry, looked up): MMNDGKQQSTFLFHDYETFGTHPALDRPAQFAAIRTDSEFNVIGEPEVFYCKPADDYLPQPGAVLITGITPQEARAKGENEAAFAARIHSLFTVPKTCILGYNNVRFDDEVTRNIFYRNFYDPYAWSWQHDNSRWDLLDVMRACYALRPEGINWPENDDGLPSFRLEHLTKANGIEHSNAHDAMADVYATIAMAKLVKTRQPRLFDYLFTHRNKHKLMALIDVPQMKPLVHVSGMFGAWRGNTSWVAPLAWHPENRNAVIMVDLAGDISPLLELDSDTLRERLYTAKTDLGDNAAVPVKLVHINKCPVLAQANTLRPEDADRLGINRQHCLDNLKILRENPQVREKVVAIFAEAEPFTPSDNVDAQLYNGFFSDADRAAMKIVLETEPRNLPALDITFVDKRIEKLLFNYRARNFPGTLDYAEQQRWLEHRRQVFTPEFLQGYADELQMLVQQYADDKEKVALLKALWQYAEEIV

T2: fluorescein-labeled SSB C-terminal peptide, fluorescein-WMDFDDDIPF (E. coli)
T2 construct: also called F-WT; F-SSB-Ct
T2 peptide: fluorescein-WMDFDDDIPF

T3: E. coli Exonuclease I (Escherichia coli, UniProt P04995 1-475)
T3 construct: also called ExoI; Exol
T3 sequence: T1 sequence (P04995 whole entry, looked up)

B1: ExoI Glu318 Ala variant (enzyme)
chain: T1 sequence (P04995 whole entry, looked up) with E318A
notes: also called E318A; Glu318 variant
B2: ExoI Lys227 Ala variant (enzyme)
chain: T1 sequence (P04995 whole entry, looked up) with K227A
notes: basic ridge variant; also called K227A; Lys227 variant
B3: WT peptide (WMDFDDDIPF, without a fluorescent moiety) (peptide)
peptide: WMDFDDDIPF
notes: also called unlabeled peptide; SSB-Ct peptide

How the values were obtained:
[1] = target: T4, ExoI (Escherichia coli, UniProt P04995); assay type: binding; settings: FIG. 26A
T4 construct: made in house

[2] = target: Escherichia coli Exonuclease I (Escherichia coli) (UniProt P04995); experiment: cell-based or functional assay
[3] = target: ExoI Arg316 Ala variant (Escherichia coli) (UniProt P04995); experiment: cell-based or functional assay
[4] = target: Exonuclease I/SSB-Ct complex (Escherichia coli, UniProt P04995); experiment: Fluorescence polarization competition: inhibition of fluorescein-SSB C-terminal peptide binding to Exonuclease I (HTS and Ki determination)
Method: (§1) Peptide binding assays were performed in solution, using the peptides from above, and Exonuclease I, in the absence or presence of various compounds. Different amounts of Exonuclease I (ExoI) were used in the peptide binding assays. […] Fluorescence polarization (FP) was measured at 25° C. in triplicate; the average FP value was plotted with standard deviation of the mean shown as error.
(§2) Concentrated Exonuclease I was dialyzed overnight into 2 liters dilution buffer (DB) (20 mM Tris pH 8.0 HCl, 100 mM NaCl, 1 mM MgCl2, and 1 mM Beta-Mercaptoethanol). […] After sitting at room temperature for 5 min, a liquid handling system was used to aliquot this solution into 384 well plates providing 30 microliters/well. One microliter of 1 mM compound was then added. The screened compounds were obtained from the ChemBridge DIVERSet library (ChemBridge Corporation, San Diego, Calif.), from the Maybridge HitFinder library (Thermo Fisher Scientific, Waltham, Mass.), from the ChemDiv library (Chemical Diversity Labs, San Diego, Calif.), or from the Known Bioactive Library—KBA01.
(§3) The FP (fluorescence polarization) values for each well were read using a (plate reader) 5 minutes after compound addition.
(§4) Increasing amounts of compound were titrated into peptide protein mixture until FP values were lowered to values given by only fluorescently labeled peptide alone. Ki values were determined using the Ki calculator for fluorescence-based competitive binding assays of Prof. Shaomeng Wang, University of Michigan (Nikolovska-Coleska et al., 2004, Anal. Biochem. 332: 261-273).

[5] = test system: E. coli 4213 (imp4213, compromised cell wall); experiment: microbe, parasite or virus in culture; assay type: cell-based; settings: Escherichia coli
Method: The compromised cell wall allows the chemicals to pass through it more readily.
(§5) 100 μL of LB containing E. coli 1655, E. coli 4213, or S. aureus at A ˜0.05 OD 600 was aliquoted in 96 well plates. One μL of compound in DMSO was added to final concentrations given. Plates were incubated at 37° C. with shaking at 250 RPM. Rate of growth was calculated by determining the average change in OD/hour that took place between hours 3 and 7 (log growth phase). The graphs shown herein are plots of this bacterial growth rate (change in OD/h) against inhibitor concentration in μM.

[6] = test system: Staphylococcus aureus 12598; experiment: Bacterial growth assay in LB liquid media, S. aureus; assay type: cell-based; settings: Staphylococcus aureus, 12598
Method: as §5

[7] = test system: E. coli (imp4213); experiment: MIC on solid media, E. coli; assay type: cell-based; settings: Escherichia coli, read-out: MIC (E. coli)
[8] = test system: B. subtilis; experiment: Growth on solid media (MIC; agar plates with compound), B. subtilis; assay type: cell-based, Bacillus subtilis; settings: for MIC / growth on agar plates: Bacillus subtilis; for MIC: solid media, B. subtilis; for Bactericidal for B. subtilis: Table 3 info column; for growth on agar plates: 100 μM compound in agar
Method: (§6) A number of the tested candidate compounds had profound inhibitory effects on bacterial growth. In addition, it was discovered that the identified drug compounds can slow the growth of a number of other Gram-positive bacterial species. For example, the growth of Bacillus subtilis and Enterococcus faecalis was inhibited when these bacteria were grown on agar plates containing 100 μM of either compound 9 or compound 10.

[9] = test system: HT-29 (human colorectal adenocarcinoma) cells; experiment: Mammalian cell toxicity, CellTiter-Glo cell viability assay; assay type: cell-based
Method: The toxicity of the identified antimicrobial candidate compounds was tested using human colorectal adenocarcinoma cells in vitro. […] The mammalian cells were tested using a CellTiter-Glo cell viability assay (Promega, Madison, Wis.).

[10] = test system: red blood cells; experiment: In vitro hemolysis; assay type: cell-based; settings: for % hemolysis at given concentration: 1 hour; for Hemolysis: Table 3, minimum concentration necessary to lyse red blood cells
Method: The identified small molecules were incubated with red blood cells to see what percentage of cells would lyse after 1 hour. Estimated hemolysis data are due to problem with reading absorbance, when the compound absorbs at the same wavelength as heme or if the compound precipitates. In such instances it is difficult to quantitate the absorbance readings; however, visual determination of how many cells have lysed can then be performed, which provides an estimate of cell lysis.

[11] = target: T1, Exonuclease I/SSB-Ct complex; experiment: Fluorescence polarization competition: inhibition of fluorescein-SSB C-terminal peptide binding to Exonuclease I (HTS and Ki determination); settings: FIG. 7, unlabeled peptide competition
Method: as §1, §2, §3, §4

[12] = test system: Enterococcus faecalis; experiment: Growth on agar plates containing compound, Enterococcus faecalis; assay type: cell-based; settings: 100 μM compound in agar
Method: as §6

[13] = test system: Deinococcus radiodurans; experiment: Growth on agar plates containing compound, Deinococcus radiodurans; assay type: cell-based; settings: tested in a similar manner (100 μM in agar)
Method: as §6

[14] = target: Topoisomerase III (TopoIII)/C-terminal tail of E. coli SSB (Escherichia coli, UniProt P14294); experiment: Topoisomerase III peptide binding (fluorescence anisotropy); settings: 100 μM final concentration, 1% DMSO
Sequence of Topoisomerase III (TopoIII)/C-terminal tail of E. coli SSB (P14294 whole entry): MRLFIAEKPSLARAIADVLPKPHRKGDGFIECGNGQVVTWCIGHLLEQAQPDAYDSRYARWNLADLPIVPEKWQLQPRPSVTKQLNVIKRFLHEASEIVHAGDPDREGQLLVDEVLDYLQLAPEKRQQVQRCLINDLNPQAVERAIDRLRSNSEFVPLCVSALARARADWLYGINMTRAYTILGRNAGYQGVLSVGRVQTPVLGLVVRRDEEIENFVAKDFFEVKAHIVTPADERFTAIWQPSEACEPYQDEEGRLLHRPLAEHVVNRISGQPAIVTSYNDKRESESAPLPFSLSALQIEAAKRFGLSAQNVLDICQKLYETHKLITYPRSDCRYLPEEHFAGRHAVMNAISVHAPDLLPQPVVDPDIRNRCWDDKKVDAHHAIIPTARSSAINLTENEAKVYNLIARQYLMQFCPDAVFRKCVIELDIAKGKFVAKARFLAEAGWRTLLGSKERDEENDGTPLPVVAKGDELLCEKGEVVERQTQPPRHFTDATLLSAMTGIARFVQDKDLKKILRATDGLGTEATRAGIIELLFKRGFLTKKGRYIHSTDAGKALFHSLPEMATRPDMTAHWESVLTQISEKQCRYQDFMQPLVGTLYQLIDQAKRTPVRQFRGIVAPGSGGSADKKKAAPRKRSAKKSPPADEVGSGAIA
Method: TopoIII was titrated into 10 nM fluorescent peptide, as described above for the ExoI binding assays. The buffer conditions for this binding assay were: 300 mM NaCl, 20 mM Tris pH 8.0, 10% Glycerol, 1 mM BME (Beta-Mercaptoethanol), and 1% DMSO. Concentrations of TopoIII used are given on the graph in FIG. 24. Changes in anisotropy upon binding were read using PanVera Beacon 2000 FP.
Either unlabeled peptide or various compounds were then added to a final concentration of 100 μM. These compounds and unlabeled peptide were dissolved in DMSO and their addition brought the final concentration of DMSO to 1%.

[15] = target: T2, fluorescein-labeled SSB C-terminal …; experiment: equilibrium fluorescence anisotropy
[16] = target: T3, E. coli Exonuclease I; experiment: fluorescence polarization competition: unlabeled peptide titrated into 1 uM ExoI with 10 nM fluorescein-labeled SSB C-terminal peptide
[17] = read-out: IC50 μM inhibitor, inhibition of E. coli growth
[18] = read-out: IC(50) E. coli imp4213
[19] = Table 3, reduce growth 50% in liquid media, unit not given (Table 5 gives μM), read-out: IC(50) S. aureus
[20] = Table 5, read-out: IC50 μM inhibitor, inhibition of S. aureus growth
[21] = compound listing, bacterial growth in LB, read-out: IC50 Staphylococcus aureus
[22] = HT-29, Table 3, unit inferred, read-out: IC(50) Human cell line
[23] = HT-29 cells, CellTiter-Glo, read-out: IC50

Molecule	Ki [4] [µM]	Ki ([4]; Ki estimates, Table 2) [µM]	Ki ([4]; Ki, compound listing) [µM]	IC50 [5, 17] [µM]	IC50 ([5]; read-out: IC50 E. coli 4213) [µM]	IC50 [5, 18] [µM]	IC50 [6, 19] [µM]	IC50 [6, 20] [µM]	IC50 [6, 21] [µM]	MIC [7] [µg/mL]	MIC [8] [µg/mL]	IC50 [9, 22] [µM]	IC50 [9, 23] [µM]	Hemolysis [10] [µM]	further results
WDFMDDPFID [F-mixed]	–	–	–	–	–	–	–	–	–	–	–	–	–	–	ExoI binding to control peptides relative to F-SSB-Ct [1]: minimal
E. coli single-stranded DNA-binding protein (from UniProt P0AGE0 2-178)	–	–	–	–	–	–	–	–	–	–	–	–	–	–	ExoI nuclease activity on radiolabeled ssDNA, stimulation by SSB [2]: 4 fold; SSB-stimulated ExoI nuclease activity [3]: < 2 fold
CC(/C=C1\SC(=S)N(C(C(=O)O)c2ccccc2)C1=O)=C\c1ccccc1 (stereo not drawn) [Compound 8, [5-(2-methyl-3-phenyl-2-propen-1-ylidene)-4-oxo-2-thioxo-1,3-thiazolidin-3-yl](phenyl)acetic acid]	4	4	~4	11	11	11	29	30	29	4 (≈ 10.1 µM)	6.3 (≈ 15.9 µM)	> 100	> 100	~200	Bactericidal for B. subtilis [8]: Compound 8; also called MPTA. Came from original Maybridge HTS collection. Bactericidal for B. subtilis; % hemolysis at given concentration ([10]; 200 μM): estimated 0% 200; % hemolysis at given concentration ([10]; 400 μM): estimated 90% 400 uM
DDDIPF: unlabeled SSB C-terminal peptide with three residues (MDF) missing from the N-terminus [reference compound]	–	–	–	–	–	–	–	–	–	–	–	–	–	–	amount needed to titrate away the fluorescent peptide, relative to full-length peptide [11]: ten-fold more
CC(C)(C)C1=NN(c2nc3ccc(Cl)cc3s2)C(=O)C1 [Compound 9, 3-(tert-butyl)-1-(6-chloro-1,3-benzothiazol-2-yl)-4,5-dihydro-1H-pyrazol-5-one]	0.8	2.2	~0.773	6	6	6	6	6	5.5	9 (≈ 29.2 µM)	6.2 (≈ 20.1 µM)	> 100	38	>800	growth on agar plates [8]: inhibited; growth on agar plates [12]: inhibited; growth on agar plates [13]: inhibited; % hemolysis at given concentration ([10]; >800 μM): 0% >800
O=C(O)C(Cc1ccccc1)N1C(=O)/C(=C/c2cccc(Br)c2)SC1=S (stereo not drawn) [Compound 3, 2-[5-(3-bromobenzylidene)-4-oxo-2-thioxo-1,3-thiazolidin-3-yl]-3-phenylpropanoic acid]	2.5	2.5	~2.5	6	5.5	6	9	9	10	3.6 (≈ 8.03 µM)	3.6 (≈ 8.03 µM)	12	> 100	~100	Bactericidal for B. subtilis [8]: Compound 3; also called BOTP. Came from original Maybridge HTS collection. Bactericidal for B. subtilis; % hemolysis at given concentration ([10]; 100 μM): 20% 100
COc1ccc(Nc2cc(C(F)(F)F)ccc2Cl)c(C(=O)O)c1 [Compound 10, 2-[2-chloro-5-(trifluoromethyl)anilino]-5-methoxybenzoic acid]	0.1	0.35	~0.125	30	30	30	20	20	18	12.3 (≈ 35.6 µM)	11.1 (≈ 32.1 µM)	> 100	60	~800	growth on agar plates [8]: inhibited; growth on agar plates [12]: inhibited; growth on agar plates [13]: inhibited; % hemolysis at given concentration ([10]; 400 μM): 0% 400; % hemolysis at given concentration ([10]; 800 μM): 85% at 800 μM; inhibition of fluorescent peptide binding to TopoIII (anisotropy) [14]: inhibit binding
B1	–	–	–	–	–	–	–	–	–	–	–	–	–	–	fold enhanced binding relative to wild-type ExoI [15]: ~2 fold
B2	–	–	–	–	–	–	–	–	–	–	–	–	–	–	fold binding defect [15]: 7 fold
B3	–	–	–	–	–	–	–	–	–	–	–	–	–	–	Ki [16]: 0.053 µM
